Measurements as given in ChEMBL document CHEMBL5356985, “Development of trisubstituted thiophene-3-arboxamide selenide derivatives as novel EGFR kinase inhibitors with cytotoxic activity” (RSC Med Chem, 2023).
The source made the active and inactive calls. No cut-off for these calls is given here.

Legend:
HCT-116 [1] = experiment: Induction of apoptosis in human HCT-116 cells assessed as early apoptotic cells at 1.6 uM incubated for 48 hrs by annexin V-FITC and propidium iodide staining based flow cytometry (Rvb=4.44%); assay type: functional
HCT-116 [2] = experiment: Anti-metastatic activity against human HCT-116 cells assessed as inhibition of cell migration at 1.6 to 6.4 uM and measured at 48 hrs by scratch wound healing assay; assay type: functional, cell-based; conditions: dose 1.6-6.4 µM
HCT-116 [3] = experiment: Induction of apoptosis in human HCT-116 cells assessed as live cells at 1.6 uM incubated for 48 hrs by annexin V-FITC and propidium iodide staining based flow cytometry (Rvb=68.64%); assay type: functional
HCT-116 [4] = experiment: Antiproliferative activity against human HCT-116 cells assessed as cell growth inhibition incubated for 48 hrs by MTT assay; assay type: functional, cell-based; conditions: HCT-116, 48 h
HCT-116 [5] = experiment: Induction of apoptosis in human HCT-116 cells assessed as live cells at 6.4 uM incubated for 48 hrs by annexin V-FITC and propidium iodide staining based flow cytometry (Rvb=68.64%); assay type: functional
SK-MEL-28 [6] = experiment: Antiproliferative activity against human SK-MEL-28 cells assessed as cell growth inhibition at 20 uM incubated for 48 hrs by MTT assay; assay type: functional
HCT-116 [7] = experiment: Induction of intracellular ROS generation in human HCT-116 cells at 1.6 to 3.2 uM incubated for 48 hrs by DCFDA staining based fluorescence analysis; assay type: functional, cell-based; conditions: dose 1.6-3.2 µM
HCT-116 [8] = experiment: Antiproliferative activity against human HCT-116 cells assessed as cell growth inhibition at 20 uM incubated for 48 hrs by MTT assay; assay type: functional
HCT-116 [9] = experiment: Anti-metastatic activity against human HCT-116 cells assessed as inhibition of cell migration by measuring wound width at 1.6 uM and measured at 0 hrs by scratch wound healing assay (Rvb=287.904 micrometer); assay type: functional
HCT-116 [10] = experiment: Induction of apoptosis in human HCT-116 cells assessed as necrotic cells at 3.2 uM incubated for 48 hrs by annexin V-FITC and propidium iodide staining based flow cytometry (Rvb=13.42%); assay type: functional
HCT-116 [11] = experiment: Anti-metastatic activity against human HCT-116 cells assessed as inhibition of cell migration by measuring wound width at 6.4 uM and measured at 0 hrs by scratch wound healing assay (Rvb=287.904 micrometer); assay type: functional
HCT-116 [12] = experiment: Induction of apoptosis in human HCT-116 cells assessed as live cells at 3.2 uM incubated for 48 hrs by annexin V-FITC and propidium iodide staining based flow cytometry (Rvb=68.64%); assay type: functional
[13] = biological target: Epidermal growth factor receptor (Homo sapiens, UniProt P00533); experiment: Inhibition of EGFR (unknown origin) using poly E4Y1 and ATP as substrate incubated for 60 mins by ADP-Glo kinase assay
HCT-116 [14] = experiment: Induction of intracellular ROS generation in human HCT-116 cells at 6.4 uM incubated for 48 hrs by DCFDA staining based fluorescence analysis; assay type: functional, cell-based
A549 [15] = experiment: Antiproliferative activity against human A549 cells assessed as cell growth inhibition at 20 uM incubated for 48 hrs by MTT assay; assay type: functional
HCT-116 [16] = experiment: Induction of apoptosis in human HCT-116 cells assessed as necrotic cells at 6.4 uM incubated for 48 hrs by annexin V-FITC and propidium iodide staining based flow cytometry (Rvb=13.42%); assay type: functional
A549 [17] = experiment: Antiproliferative activity against human A549 cells assessed as cell growth inhibition incubated for 48 hrs by MTT assay; assay type: functional, cell-based; conditions: A549, 48 h
HCT-116 [18] = experiment: Anti-metastatic activity against human HCT-116 cells assessed as inhibition of cell migration by measuring wound width at 6.4 uM and measured at 48 hrs by scratch wound healing assay (Rvb=179.681 micrometer); assay type: functional
HCT-116 [19] = experiment: Induction of apoptosis in human HCT-116 cells assessed as chromatin condensation at 1.6 to 6.4 uM incubated for 48 hrs by DAPI staining based fluorescence microscopy; assay type: functional, cell-based; conditions: dose 1.6-6.4 µM
HCT-116 [20] = experiment: Induction of apoptosis in human HCT-116 cells assessed as necrotic cells at 1.6 uM incubated for 48 hrs by annexin V-FITC and propidium iodide staining based flow cytometry (Rvb=13.42%); assay type: functional
HCT-116 [21] = experiment: Induction of apoptosis in human HCT-116 cells assessed as early apoptotic cells at 3.2 uM incubated for 48 hrs by annexin V-FITC and propidium iodide staining based flow cytometry (Rvb=4.44%); assay type: functional
HCT-116 [22] = experiment: Induction of apoptosis in human HCT-116 cells assessed as late apoptotic cells at 3.2 uM incubated for 48 hrs by annexin V-FITC and propidium iodide staining based flow cytometry (Rvb=13.51%); assay type: functional
SK-MEL-28 [23] = experiment: Antiproliferative activity against human SK-MEL-28 cells assessed as cell growth inhibition incubated for 48 hrs by MTT assay; assay type: functional, cell-based; conditions: SK-MEL-28, 48 h
MCF7 [24] = experiment: Antiproliferative activity against human MCF7 cells assessed as cell growth inhibition incubated for 48 hrs by MTT assay; assay type: functional, cell-based; conditions: MCF7, 48 h
HCT-116 [25] = experiment: Induction of mitochondrial transmembrane potential loss in human HCT-116 cells assessed as reduction in red/green fluorescence ratio at 6.4 uM incubated for 48 hrs by JC-1 staining based fluorescence microscopic analysis; assay type: functional, cell-based
HCT-116 [26] = experiment: Induction of apoptosis in human HCT-116 cells assessed as increase in late apoptotic cells by measuring ratio of orange-red fluorescence at 1.6 to 6.4 uM incubated for 48 hrs by Acridine orange/ethidium bromide staining based fluorescence microscopy; assay type: functional, cell-based; conditions: dose 1.6-6.4 µM
HCT-116 [27] = experiment: Induction of apoptosis in human HCT-116 cells assessed as reduction in number of viable cells at 1.6 to 6.4 uM incubated for 48 hrs by phase-contrast microscopy; assay type: functional, cell-based; conditions: dose 1.6-6.4 µM
HCT-116 [28] = experiment: Induction of mitochondrial transmembrane potential loss in human HCT-116 cells assessed as reduction in red/green fluorescence ratio at 1.6 to 3.2 uM incubated for 48 hrs by JC-1 staining based fluorescence microscopic analysis; assay type: functional, cell-based; conditions: dose 1.6-3.2 µM
HCT-116 [29] = experiment: Induction of apoptosis in human HCT-116 cells assessed as cell shape alteration at 1.6 to 6.4 uM incubated for 48 hrs by phase-contrast microscopy; assay type: functional, cell-based; conditions: dose 1.6-6.4 µM
HCT-116 [30] = experiment: Anti-metastatic activity against human HCT-116 cells assessed as inhibition of cell migration by measuring wound width at 3.2 uM and measured at 48 hrs by scratch wound healing assay (Rvb=179.681 micrometer); assay type: functional
HCT-116 [31] = experiment: Induction of apoptosis in human HCT-116 cells assessed as late apoptotic cells at 1.6 uM incubated for 48 hrs by annexin V-FITC and propidium iodide staining based flow cytometry (Rvb=13.51%); assay type: functional
HCT-116 [32] = experiment: Induction of apoptosis in human HCT-116 cells assessed as cell shrinkage at 1.6 to 6.4 uM incubated for 48 hrs by phase-contrast microscopy; assay type: functional, cell-based; conditions: dose 1.6-6.4 µM
HCT-116 [33] = experiment: Induction of apoptosis in human HCT-116 cells assessed as increase in necrotic cells by measuring ratio of orange-red fluorescence at 1.6 to 6.4 uM incubated for 48 hrs by Acridine orange/ethidium bromide staining based fluorescence microscopy; assay type: functional, cell-based; conditions: dose 1.6-6.4 µM
HCT-116 [34] = experiment: Induction of apoptosis in human HCT-116 cells assessed as early apoptotic cells at 6.4 uM incubated for 48 hrs by annexin V-FITC and propidium iodide staining based flow cytometry (Rvb=4.44%); assay type: functional
HCT-116 [35] = experiment: Anti-metastatic activity against human HCT-116 cells assessed as inhibition of cell migration by measuring wound width at 3.2 uM and measured at 0 hrs by scratch wound healing assay (Rvb=287.904 micrometer); assay type: functional
MCF7 [36] = experiment: Antiproliferative activity against human MCF7 cells assessed as cell growth inhibition at 20 uM incubated for 48 hrs by MTT assay; assay type: functional
HCT-116 [37] = experiment: Induction of apoptosis in human HCT-116 cells assessed as horse shoe-shaped nuclear morphological change at 1.6 to 6.4 uM incubated for 48 hrs by DAPI staining based fluorescence microscopy; assay type: functional, cell-based; conditions: dose 1.6-6.4 µM
HCT-116 [38] = experiment: Induction of apoptosis in human HCT-116 cells assessed as late apoptotic cells at 6.4 uM incubated for 48 hrs by annexin V-FITC and propidium iodide staining based flow cytometry (Rvb=13.51%); assay type: functional
HCT-116 [39] = experiment: Anti-metastatic activity against human HCT-116 cells assessed as inhibition of cell migration by measuring wound width at 1.6 uM and measured at 48 hrs by scratch wound healing assay (Rvb=179.681 micrometer); assay type: functional
HCT-116 [40] = experiment: Induction of apoptosis in human HCT-116 cells assessed as pyknotic/fragmented bright nucleus at 1.6 to 6.4 uM incubated for 48 hrs by DAPI staining based fluorescence microscopy; assay type: functional, cell-based; conditions: dose 1.6-6.4 µM
[41] = Cytotoxicity against human HaCaT cells assessed as cell growth inhibition incubated for 48 hrs by MTT assay; assay type: toxicity, cell-based

Epidermal growth factor receptor, sequence (P00533 whole entry): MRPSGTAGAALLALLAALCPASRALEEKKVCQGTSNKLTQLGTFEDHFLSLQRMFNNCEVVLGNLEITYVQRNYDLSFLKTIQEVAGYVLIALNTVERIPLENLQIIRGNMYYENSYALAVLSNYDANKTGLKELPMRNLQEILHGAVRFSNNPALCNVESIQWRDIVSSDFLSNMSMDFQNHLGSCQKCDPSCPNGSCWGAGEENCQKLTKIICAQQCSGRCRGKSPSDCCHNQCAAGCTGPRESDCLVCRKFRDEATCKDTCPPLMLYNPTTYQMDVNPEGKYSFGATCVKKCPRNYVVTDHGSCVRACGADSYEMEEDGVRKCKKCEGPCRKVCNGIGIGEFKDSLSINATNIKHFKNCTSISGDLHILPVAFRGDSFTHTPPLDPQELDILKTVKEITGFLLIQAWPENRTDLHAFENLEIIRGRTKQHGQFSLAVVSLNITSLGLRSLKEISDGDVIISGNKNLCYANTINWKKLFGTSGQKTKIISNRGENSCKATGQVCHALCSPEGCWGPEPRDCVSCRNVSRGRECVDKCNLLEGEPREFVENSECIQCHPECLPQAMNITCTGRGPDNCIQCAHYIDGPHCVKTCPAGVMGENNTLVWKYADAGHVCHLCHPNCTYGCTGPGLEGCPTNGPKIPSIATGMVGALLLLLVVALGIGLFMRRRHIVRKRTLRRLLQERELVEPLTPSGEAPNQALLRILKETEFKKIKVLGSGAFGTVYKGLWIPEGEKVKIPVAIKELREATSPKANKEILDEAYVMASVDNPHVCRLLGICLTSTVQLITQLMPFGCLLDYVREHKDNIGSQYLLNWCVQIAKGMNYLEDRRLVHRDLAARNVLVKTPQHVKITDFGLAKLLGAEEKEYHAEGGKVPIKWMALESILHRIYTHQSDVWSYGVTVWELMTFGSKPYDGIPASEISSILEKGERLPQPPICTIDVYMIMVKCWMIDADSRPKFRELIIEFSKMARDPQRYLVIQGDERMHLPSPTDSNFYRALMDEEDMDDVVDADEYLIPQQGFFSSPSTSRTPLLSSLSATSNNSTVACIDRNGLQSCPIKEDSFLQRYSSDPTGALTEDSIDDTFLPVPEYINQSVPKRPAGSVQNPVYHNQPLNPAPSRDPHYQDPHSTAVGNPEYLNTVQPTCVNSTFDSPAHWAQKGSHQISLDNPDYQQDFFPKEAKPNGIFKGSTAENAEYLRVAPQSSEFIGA

Question: For `Cc1sc([Se]c2sc(C)c(-c3cccc(Br)c3)c2C(=O)NC(CO)C(=O)N2CCCC2)c(C(=O)NC(CO)C(=O)N2CCCC2)c1-c1cccc(Br)c1` (stereo unspecified), which Activity (HCT-116 [1]) is on record?
Answer: The Activity was 8.97%.

Question: What about the Activity (HCT-116 [2]) of the same molecule?
Answer: The Activity was “Dose-Dependent Effect”.

Question: What about the Activity (HCT-116 [3]) of the same molecule?
Answer: Its Activity is 52.95%.

Question: What about the IC50 (HCT-116 [4]) of the same molecule?
Answer: The IC50 was 3.2 µM.

Question: What about the Activity (HCT-116 [5]) of the same molecule?
Answer: The Activity was 2.56%.

Question: What about the inhibition at 20 µM (SK-MEL-28 [6]) of the same molecule?
Answer: The inhibition at 20 µM was 78%.

Question: And the Activity (HCT-116 [7])?
Answer: The Activity was “Dose-Dependent Effect”.

Question: And the inhibition at 20 µM (HCT-116 [8])?
Answer: Its inhibition at 20 µM is 75%.

Question: What about the Activity (HCT-116 [9]) of the same molecule?
Answer: Its Activity is 257.433 um.

Question: What about the Activity (HCT-116 [10]) of the same molecule?
Answer: The Activity was 12.61%.

Question: And the Activity (HCT-116 [11])?
Answer: Its Activity is 275.298 um.

Question: What about the Activity (HCT-116 [12]) of the same molecule?
Answer: Its Activity is 32.12%.

Question: What about the IC50 [13] of the same molecule?
Answer: The IC50 was 0.0944 µM.

Question: What about the Activity (HCT-116 [14]) of the same molecule?
Answer: Its Activity is “Active”.

Question: What about the inhibition at 20 µM (A549 [15]) of the same molecule?
Answer: Its inhibition at 20 µM is 90%.

Question: And the Activity (HCT-116 [16])?
Answer: Its Activity is 5.47%.

Question: And the IC50 (A549 [17])?
Answer: The IC50 was 7.86 µM.

Question: What about the Activity (HCT-116 [18]) of the same molecule?
Answer: The Activity was 267.94 um.

Question: What about the Activity (HCT-116 [19]) of the same molecule?
Answer: Its Activity is “Active”.

Question: What about the Activity (HCT-116 [20]) of the same molecule?
Answer: The Activity was 10.1%.

Question: And the Activity (HCT-116 [21])?
Answer: The Activity was 11.75%.

Question: And the Activity (HCT-116 [22])?
Answer: Its Activity is 43.71%.

Question: What about the IC50 (SK-MEL-28 [23]) of the same molecule?
Answer: Its IC50 is 8.81 µM.

Question: And the IC50 (MCF7 [24])?
Answer: The IC50 was 8.06 µM.

Question: And the Activity (HCT-116 [25])?
Answer: The Activity was “Active”.

Question: And the Activity (HCT-116 [26])?
Answer: The Activity was “Dose-Dependent Effect”.

Question: What about the Activity (HCT-116 [27]) of the same molecule?
Answer: Its Activity is “Dose-Dependent Effect”.

Question: And the Activity (HCT-116 [28])?
Answer: The Activity was “Dose-Dependent Effect”.

Question: What about the Activity (HCT-116 [29]) of the same molecule?
Answer: Its Activity is “Dose-Dependent Effect”.

Question: What about the Activity (HCT-116 [30]) of the same molecule?
Answer: The Activity was 276.354 um.

Question: And the Activity (HCT-116 [31])?
Answer: The Activity was 27.98%.

Question: And the Activity (HCT-116 [32])?
Answer: Its Activity is “Dose-Dependent Effect”.

Question: And the Activity (HCT-116 [33])?
Answer: The Activity was “Dose-Dependent Effect”.

Question: And the Activity (HCT-116 [34])?
Answer: Its Activity is 3.04%.

Question: And the Activity (HCT-116 [35])?
Answer: The Activity was 296.312 um.

Question: And the inhibition at 20 µM (MCF7 [36])?
Answer: Its inhibition at 20 µM is 90%.

Question: And the Activity (HCT-116 [37])?
Answer: The Activity was “Active”.

Question: What about the Activity (HCT-116 [38]) of the same molecule?
Answer: Its Activity is 88.93%.

Question: What about the Activity (HCT-116 [39]) of the same molecule?
Answer: Its Activity is 235.37 um.

Question: What about the Activity (HCT-116 [40]) of the same molecule?
Answer: The Activity was “Active”.

Question: What about the IC50 at 48 h [41] of the same molecule?
Answer: Its IC50 at 48 h is 24 µM.
